Reference: patent US11360010B1, “Methods and device for controlled cell stretch and imaging” (The Regents of the University of Colorado, a body, priority 2019, dated 2022)
Entries after “also recorded” stand apart in the source; their conditions may differ.

Key:
Type in all cases: cell-based
[1] = tested on: mouse embryonic skin fibroblasts (MSFs); test: Live imaging of nuclear area and chromatin condensation (H2b-eGFP) during cyclic stretch routines; conditions: BAPTA 50 μM, KN-62 10 μM, cytochalasin D 2 μM
Description: (§1) Transgenic mice harboring a fluorescence tag at the H2b histone—B6.Cg-Tg (HIST1H2BB/EGFP) 1 Pa/J, Stock No: 006069—were obtained from Jackson Laboratory (Bar Harbor, Me.). All animal procedures were performed following Institutional Animal Care & Use Committee approval. Skin from embryonic mice was harvested 18.5 days post-conception. Skin was minced, washed with Hank's Balanced Salt Solution (HBSS), and incubated in 35 mm dishes in shallow medium (˜0.5 mL) to avoid floating of the tissue for 4 days, during which fibroblasts extruded from the tissue. After 4 days, remaining tissue was removed (picked out with a pipette), and extruded cells in the dish were detached using TrypLE (Gibco, Gaithersburg, Md.) and expanded in culture for another 2 days before being seeded into stretch chambers for experiments. The inner well of assembled stretch chambers was ozone activated for 30 s via corona arc discharge (BD-20; Electro-Technic Products) and coated with 50 μg/mL bovine plasma fibronectin (F1141; Sigma-Aldrich) in a total volume of 250 μL overnight at 37° C. Mouse embryonic skin fibroblasts (MSFs) were seeded into stretch chambers at a density of 80,000 cells/cm′ 1 day before experiments. MSFs were extruded and cultured in DMEM (ATCC, Manassas, Va.) containing 10% fetal bovine serum (Gibco), 1% penicillin-streptomycin (Gibco), and 25 mM HEPES (Gibco) at 37° C. and 5% CO2. To inhibit calcium signaling, MSFs were incubated with 50 μM BAPTA (A4926; Sigma-Aldrich) or 10 μM KN-62 (12142; Sigma-Aldrich) 1 h before cyclic strain experiments. To disrupt actin polymerization, MSFs were incubated with 2 μM cytochalasin D (C8273; Sigma-Aldrich) 30 min before experiments. Vehicle controls were incubated with 0.001% DMSO (276855; Sigma-Aldrich) 1 h before experiments. To test the use of chromatin dyes, cells were stained with Hoechst (NucBlue Live ReadyProbes; Life Technologies) 30 min before experiments. Stretch experiments were performed at 25° C. (room temperature) under humidified conditions.
The stretch device was mounted on an inverted epi-fluorescence microscope (Ti-Eclipse; Nikon) with a 60× water immersion objective (0.26 μm/pixel) and an EMCCD camera (iXonEM+; Andor Technology). The surrounding of the microscope was humidified to prevent the water on the objective from evaporating during the 1 h experiment. Oil immersion is also possible, but water immersion provided better image quality with the silicone membranes used.
Using MATLAB, a sinusoidal control signal (1 Hz) was sent to the Arduino controller, resulting in a cyclic stretch routine of the membrane (FIG. 1C), with peak strains set to 5% (−0.1 V), 10% (−0.9 V), and 20% (−2.25 V) as determined by the calibration curve. Cells were cyclically stretched for 30 min, followed by 30 min of rest, during which 2 μm z-stacks (0.5 μm steps) of nuclei were acquired. During the rest period, cells experienced no stretch but a constant magnetic field using the offset Arduino input voltage (0.8 V) that keeps the piston suspended at 0% stretch. For acquisition, the cyclic stretch routine was paused for 1 min to allow for a steady imaging plane and fine readjustments in z-position due to water evaporation. Unstretched control cells (0%) were seeded into stretch chambers but kept stationary on the microscope without any magnetic field applied. Unstretched magnetic control cells (MAG) were placed stationary inside the coil without the piston, and a magnetic field corresponding to a 20% sinusoidal stretch routine was applied.
A custom MATLAB code was used to track nuclear outlines via H2b-eGFP and to generate H2b intensity histograms during an image series, from which changes in nuclear area, H2b skewness, and H2b kurtosis were calculated.

[2] = tested on: mouse embryonic skin fibroblasts (MSFs); test: Perinuclear F-actin and γH2a.x staining after cyclic stretch routines; conditions: cytochalasin D 2 μM
Description: as §1
MSFs were fixed in 4% ice-cold paraformaldehyde (PFA) for 10 min, permeabilized with 1% Triton-X100 in phosphate-buffered saline for 15, min and blocked with 10% NGS, 1% bovine serum albumin in 0.1% PBT (0.1% Tween-20 in phosphate-buffered saline) for 60 min. Primary incubation of Phospho-Histone H2A.X Ser139 (9718S; Cell Signaling Technology, Danvers, Mass.) was performed at 4° C. overnight in 0.1% PBT containing 1% bovine serum albumin at 1:400. Secondary incubation of goat anti-rabbit IgG-AF546 (Life Technologies) was performed in primary incubation buffer for 45 min at 22° C. at a dilution of 1:500. F-actin was counterstained with phalloidin-CF405 (Biotium, Fremont, Calif.) for 30 min at a dilution of 1:30. Staining was performed in containment wells. After staining, membranes were cut out of the containment well using a circular punch and mounted cell-side up onto #1.0 glass slides with ProLong Diamond Antifade Mountant (Life Technologies). Image stacks (5 μm, 1 μm step) of multiple nuclei in a 318×318 μm area were acquired on a Nikon MR confocal microscope using a 40× oil immersion objective (0.31 μm/pixel). A custom MATLAB code was used to track nuclear outlines via H2b-eGFP and to quantify perinuclear F-actin intensities and γH2a.x foci in projected image stacks. Only the projected F-actin within the nuclear outline (apical perinuclear F-actin) was counted in this analysis. To account for variations in staining and imaging (the same imaging settings were used), fluorescence channels were histogram normalized. Perinuclear F-actin intensities were calculated as the sum of normalized phalloidin intensities within a nuclear border. DNA damage foci were determined by detecting 2D peaks in the normalized γH2a.x channel using the MATLAB script FastPeakFind (v. 1.7).

[3] = tested on: mouse embryonic skin fibroblasts (MSFs); test: Nuclear strain transfer from membrane to nucleus after cyclic stretch; conditions: after 30 min of 20% cyclic strain; relaxed vs stretched images; cytochalasin D 2 μM vs NT cells
Description: Transgenic mice harboring a fluorescence tag at the H2b histone—B6.Cg-Tg (HIST1H2BB/EGFP) 1 Pa/J, Stock No: 006069—were obtained from Jackson Laboratory (Bar Harbor, Me.). All animal procedures were performed following Institutional Animal Care & Use Committee approval. Skin from embryonic mice was harvested 18.5 days post-conception. Skin was minced, washed with Hank's Balanced Salt Solution (HBSS), and incubated in 35 mm dishes in shallow medium (˜0.5 mL) to avoid floating of the tissue for 4 days, during which fibroblasts extruded from the tissue. After 4 days, remaining tissue was removed (picked out with a pipette), and extruded cells in the dish were detached using TrypLE (Gibco, Gaithersburg, Md.) and expanded in culture for another 2 days before being seeded into stretch chambers for experiments. […] To test the use of chromatin dyes, cells were stained with Hoechst (NucBlue Live ReadyProbes; Life Technologies) 30 min before experiments. […]
To analyze the amount of strain transferred from the membrane to the nucleus after cyclic stretch routines, image stacks of nuclei were acquired under relaxed or stretched conditions, and bulk nuclear strain was calculated from the change in nuclear area using the same MATLAB script as above. Note that nuclear strain transfer could not be accurately analyzed before stretch routines because of the fast response in area decline.

[4] = static magnetic-field-only routine (MAG), no stretch
[5] = after 30 min 5% cyclic stretch, vs NT or VH control cells, BAPTA 50 μM, KN-62 10 μM
[6] = after 30 min 5% cyclic stretch, vs NT or VH control cells, BAPTA 50 μM, KN-62 10 μM, listed as CD
[7] = after 30 min 20% cyclic stretch, vs NT or VH control cells, BAPTA 50 μM, KN-62 10 μM
[8] = after 30 min 20% cyclic stretch, vs NT or VH control cells, BAPTA 50 μM, KN-62 10 μM, listed as CD

C=C1[C@@H](C)[C@H]2[C@H](Cc3ccccc3)NC(=O)[C@]23[C@H](OC(C)=O)/C=C/[C@@](C)(O)C(=O)[C@@H](C)C/C=C/[C@H]3[C@@H]1O [cyto D, cytochalasin D]
change in nuclear area ([1]; 30 min 5% cyclic strain, 1 Hz, vs NT/VH cells (area increases)): abrogated the increase in nuclear area
change in nuclear area ([1]; 30 min 5% cyclic strain, 1 Hz, vs NT/VH cells (area increases), listed as CD): inhibited changes in nuclear area
chromatin condensation (H2b histogram kurtosis and skewness) ([1]; 30 min 5% cyclic strain, 1 Hz, vs NT/VH cells (condensation decreases)): distinctly increased chromatin condensation
chromatin condensation (H2b histogram kurtosis and skewness) ([1]; 30 min 5% cyclic strain, 1 Hz, vs NT/VH cells (condensation decreases), listed as CD): inhibited changes in nuclear area and chromatin condensation
change in nuclear area ([1]; 30 min 20% cyclic strain, 1 Hz, vs NT/VH cells (area decreases)): inhibited nuclear shrinkage
change in nuclear area ([1]; 30 min 20% cyclic strain, 1 Hz, vs NT/VH cells (area decreases), listed as CD): inhibited changes in nuclear area
chromatin condensation (H2b histogram kurtosis and skewness) ([1]; 30 min 20% cyclic strain, 1 Hz, vs NT/VH cells (condensation increases)): inhibited nuclear shrinkage and chromatin condensation
chromatin condensation (H2b histogram kurtosis and skewness) ([1]; 30 min 20% cyclic strain, 1 Hz, vs NT/VH cells (condensation increases), listed as CD): inhibited changes in nuclear area and chromatin condensation
change in nuclear area [1, 4]: showed no effect
chromatin condensation (H2b histogram kurtosis and skewness) [1, 4]: showed no effect
number of γH2a.x foci per nucleus (DNA damage, double-strand breaks) [2, 5]: distinctly increased
perinuclear F-actin intensities [2, 5]: increased
number of γH2a.x foci per nucleus (DNA damage, double-strand breaks) [2, 6]: increased number of foci
perinuclear F-actin intensities [2, 6]: altered F-actin intensities
number of γH2a.x foci per nucleus (DNA damage, double-strand breaks) [2, 7]: distinctly increased
perinuclear F-actin intensities [2, 7]: abrogated
number of γH2a.x foci per nucleus (DNA damage, double-strand breaks) [2, 8]: increased number of foci
perinuclear F-actin intensities [2, 8]: altered F-actin intensities
perinuclear F-actin intensities ([2]; after magnetic-field-only routine (MAG)): showed no effect
number of γH2a.x foci per nucleus (DNA damage, double-strand breaks) ([2]; static magnetic-field-only controls (MAG), BAPTA 50 μM, KN-62 10 μM): had no effect
strain transferred from membrane to nuclei (nuclear strain) [3]: higher nuclear strains; also recorded: increase
